Measurements taken from patent US20220289727A1, “ENZYME INHIBITORS” (KALVISTA PHARMACEUTICALS LIMITED, priority 2019, published 2022).

Key:
Human FXIa = target: T1, Human FXIa (Homo sapiens, UniProt P03951); assay: Determination of FXIa inhibitory activity in vitro (fluorogenic substrate Z-Gly-Pro-Arg-AFC); type: biochemical; conditions: selectivity, 25° C., residual enzyme activity (initial rate)
T1 construct: Human FXIa (Enzyme Research Laboratories) was incubated; purchased Enzyme Research Laboratories
T1 sequence (P03951 388-625 limits assumed): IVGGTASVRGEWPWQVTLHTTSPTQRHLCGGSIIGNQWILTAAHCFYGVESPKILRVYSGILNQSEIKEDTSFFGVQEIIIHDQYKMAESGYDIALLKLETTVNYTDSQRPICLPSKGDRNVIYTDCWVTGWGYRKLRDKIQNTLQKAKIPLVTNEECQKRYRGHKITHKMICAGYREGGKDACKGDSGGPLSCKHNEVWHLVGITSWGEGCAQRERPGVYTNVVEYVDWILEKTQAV
T1 sequence (P03951 19-387 partner limits assumed): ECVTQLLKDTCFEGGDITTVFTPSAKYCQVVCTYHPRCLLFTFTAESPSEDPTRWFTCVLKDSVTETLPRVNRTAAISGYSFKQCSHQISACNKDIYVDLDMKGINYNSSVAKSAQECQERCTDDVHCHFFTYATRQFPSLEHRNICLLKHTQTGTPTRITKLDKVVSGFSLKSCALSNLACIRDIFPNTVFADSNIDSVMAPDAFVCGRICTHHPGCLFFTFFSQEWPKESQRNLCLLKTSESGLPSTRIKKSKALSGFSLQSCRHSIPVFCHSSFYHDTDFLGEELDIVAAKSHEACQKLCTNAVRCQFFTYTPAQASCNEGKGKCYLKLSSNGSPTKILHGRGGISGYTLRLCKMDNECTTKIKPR

Human Factor XIIa = target: T2, Human Factor XIIa (Homo sapiens, UniProt P00748); assay: Determination of FXIIa inhibitory activity in vitro (fluorogenic substrate H-DPro-Phe-Arg-AFC); type: biochemical; conditions: 25° C., residual enzyme activity (initial rate)
T2 construct: Human Factor XIIa (Enzyme Research Laboratories) was incubated; purchased Enzyme Research Laboratories
T2 sequence (P00748 373-615 limits assumed): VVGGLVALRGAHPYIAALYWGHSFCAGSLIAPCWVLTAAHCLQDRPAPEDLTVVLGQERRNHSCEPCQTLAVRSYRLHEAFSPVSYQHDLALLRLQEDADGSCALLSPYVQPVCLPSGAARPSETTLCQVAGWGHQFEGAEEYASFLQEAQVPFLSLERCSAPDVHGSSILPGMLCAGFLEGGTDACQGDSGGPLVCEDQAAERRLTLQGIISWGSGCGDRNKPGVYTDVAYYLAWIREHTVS
T2 sequence (P00748 20-372 partner limits assumed): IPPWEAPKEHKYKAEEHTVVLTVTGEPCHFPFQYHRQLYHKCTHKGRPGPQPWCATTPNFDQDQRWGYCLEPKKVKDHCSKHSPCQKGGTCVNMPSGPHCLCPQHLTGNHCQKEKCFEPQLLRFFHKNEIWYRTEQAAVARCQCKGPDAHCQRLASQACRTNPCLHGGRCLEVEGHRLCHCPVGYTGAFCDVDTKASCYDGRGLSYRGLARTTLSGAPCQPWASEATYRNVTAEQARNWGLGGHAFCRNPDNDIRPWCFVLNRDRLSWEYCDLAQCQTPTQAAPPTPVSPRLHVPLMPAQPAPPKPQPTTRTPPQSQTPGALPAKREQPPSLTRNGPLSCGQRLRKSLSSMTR

Row | IC50 (Human FXIa) | IC50 (Human Factor XIIa) | SMILES
1 | 31.7 µM | 3 to 10 µM | Nc1nccc2cc(CNC(=O)c3cc(C4CC4)nn3CC3CCN(c4ccncc4)CC3)ccc12 [Example 35.05]
2 | > 40 µM | 10 to 40 µM | Cc1cc(C(=O)NCc2ccc3c(N)nccc3c2)n(CC2CCN(c3ccncc3)CC2)n1 [Example 35.06]
3 | > 40 µM | 1 to 3 µM | CN1CCC(CCn2nccc2C(=O)NCc2ccc3c(N)nccc3c2)CC1 [Example 35.07]
4 | 12.4 µM | 10 to 40 µM | CCn1c(C(=O)NCc2ccc3c(N)nccc3c2)cc(C)c1CN1CCN(c2ccncc2)CC1 [Example 51.02, N-[(1-Amino-6-isoquinolyl)methyl]-1-ethyl-4-methyl-5-[[4-(4-pyridyl)piperazin-1-yl]methyl]pyrrole-2-carboxamide]
5 | 20.5 µM | 3 to 10 µM | CCc1cc(C(=O)NCc2ccc3c(N)nccc3c2)sc1CN1CCN(c2ccncc2)CC1 [Example 51.03]
6 | > 40 µM | 3 to 10 µM | Cc1cc(C(=O)NCc2ccc3c(N)nccc3c2)nn1CC1CCN(c2ccncc2)CC1 [Example 51.04]
7 | > 40 µM | < 1 µM | CN1CCC(CCn2nc(C(=O)NCc3ccc4c(N)nccc4c3)cc2Cl)CC1 [Example 51.05, N-((1-Aminoisoquinolin-6-yl)methyl)-5-chloro-1-(2-(1-methylpiperidin-4-yl)ethyl)-1H-pyrazole-3-carboxamide]
8 | > 40 µM | 1 to 3 µM | COCc1c(C(=O)NCc2cnc3[nH]cc(Cl)c3c2)cnn1Cc1cc2c(cc1F)CCN(C)C2 [Example 69.01, N-((3-Chloro-1H-pyrrolo[2,3-b]pyridin-5-yl)methyl)-1-((6-fluoro-2-methyl-1,2,3,4-tetrahydroisoquinolin-7-yl)methyl)-5-(methoxymethyl)-1H-pyrazole-4-carboxamide]
9 | > 40 µM | 10 to 40 µM | CN1CCC(CNc2nccc3c2C(=O)N(Cc2ccc4c(N)nccc4c2)C3)CC1 [Example 82.01, 2-((1-Aminoisoquinolin-6-yl)methyl)-4-(((1-methylpiperidin-4-yl)methyl)amino)-1,2-dihydro-3H-pyrrolo[3,4-c]pyridin-3-one]
